Data taken from EP2647379A1, “Combined use of a steroid sulfatase inhibitor for the treatment of endometriosis” (PregLem S.A., priority 2012, dated 2013).
Read-outs that look alike come from different tables or passages of the source. Blank lines part the entries; values can stand above or below the compound they belong to.

How the values were obtained:
STS activity = tested on: STS activity
Description: The above effect is confirmed on functional biomarkers of STS activity for at least 84 days. As described before, STS converts sulphate precursors of estrogens. Thus, by inhibiting STS activity a reduction in serum levels of estrone and DHEA and an increase in estrone sulphate and DHEA sulphate are expected. This effect is described by baseline corrected fold-changes of the E1-S to E1 and DHEA-S to DHEA ratios over time (study days).

[1] = Serum hormonal profile (E2, P4, T, D4A) by ELISA; type: in vivo, healthy pre-menopausal women; details: for mean concentration-time profiles for D4A / mean concentration-time profiles for T: after multiple dose administration; for E2 concentrations / P4 concentrations: mean concentration-time profile, suppression during the first cycle up to Day 29, normal increase on Day 43
Description: (§1) Blood samples were collected from each subject in order to determine pharmacodynamic parameters (sulfatase activity and hormonal profile).
(§2) STS activity was determined by spiking specimens with labelled EI-S and by measuring its conversion to E1 per gram protein under standardized incubation conditions using LC-MS/MS. Protein concentration was evaluated with a validated colorimetric assay (Bradford method). The serum samples for hormonal profile were analysed by specific and validated ELISA methods.

[2] = Follow-up effect on post-treatment menstruation cycles (ovarian and transvaginal ultrasound)
Description: Menstruation cycle length was not influenced by the treatment. […] Sizes of right and left ovary differed slightly for each subject, but no clinically relevant changes were identified by the gynaecologists.

STS [3] = molecular target: T1, STS (Homo sapiens, UniProt P08842); details: for AVG [%]: Average inhibition of Steroid Sulfatase in endometrium, Mean (SD), N = 8
T1 sequence (P08842 22-583): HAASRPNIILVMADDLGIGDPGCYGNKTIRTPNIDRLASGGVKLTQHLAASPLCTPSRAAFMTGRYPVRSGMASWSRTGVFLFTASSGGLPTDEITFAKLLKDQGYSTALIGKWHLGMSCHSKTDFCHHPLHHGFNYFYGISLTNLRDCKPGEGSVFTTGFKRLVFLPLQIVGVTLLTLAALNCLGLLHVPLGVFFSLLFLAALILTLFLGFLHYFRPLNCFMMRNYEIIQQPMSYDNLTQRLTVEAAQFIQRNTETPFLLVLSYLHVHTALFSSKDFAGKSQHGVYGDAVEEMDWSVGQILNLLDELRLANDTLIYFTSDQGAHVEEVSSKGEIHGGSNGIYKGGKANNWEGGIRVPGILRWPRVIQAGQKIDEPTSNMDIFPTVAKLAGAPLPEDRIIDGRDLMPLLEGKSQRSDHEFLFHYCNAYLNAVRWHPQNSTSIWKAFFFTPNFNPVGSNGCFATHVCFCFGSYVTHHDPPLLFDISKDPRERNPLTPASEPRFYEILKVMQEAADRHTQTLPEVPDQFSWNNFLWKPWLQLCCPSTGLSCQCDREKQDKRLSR
Description: (§3) Blood samples were collected from each subject in order to determine pharmacodynamic parameters (sulfatase activity and hormonal profile). Ovarian and endometrium transvaginal ultrasounds throughout the study and an endometrial biopsy were performed.
(§4) The biopsy was scheduled between 5 to 8 days before the anticipated onset of the next menstrual cycle after treatment and 1 month after treatment cessation.
(§5) STS activity was determined by spiking specimens with labelled EI-S and by measuring its conversion to E1 per gram protein under standardized incubation conditions using LC-MS/MS. Protein concentration was evaluated with a validated colorimetric assay (Bradford method).

[4] = multiple doses of 4 mg E2MATE, 10 mg NETA, for 4 weeks
STS [5] = molecular target: T1, STS; details: cited from earlier work
STS [6] = molecular target: T1, STS; assay: in vivo
Description: as §3, §4, §5

STS [7] = molecular target: STS (Mus musculus, UniProt P50427); details: mice, cited from earlier work
Sequence of STS (Mus musculus, UniProt P50427) (P50427 23-624): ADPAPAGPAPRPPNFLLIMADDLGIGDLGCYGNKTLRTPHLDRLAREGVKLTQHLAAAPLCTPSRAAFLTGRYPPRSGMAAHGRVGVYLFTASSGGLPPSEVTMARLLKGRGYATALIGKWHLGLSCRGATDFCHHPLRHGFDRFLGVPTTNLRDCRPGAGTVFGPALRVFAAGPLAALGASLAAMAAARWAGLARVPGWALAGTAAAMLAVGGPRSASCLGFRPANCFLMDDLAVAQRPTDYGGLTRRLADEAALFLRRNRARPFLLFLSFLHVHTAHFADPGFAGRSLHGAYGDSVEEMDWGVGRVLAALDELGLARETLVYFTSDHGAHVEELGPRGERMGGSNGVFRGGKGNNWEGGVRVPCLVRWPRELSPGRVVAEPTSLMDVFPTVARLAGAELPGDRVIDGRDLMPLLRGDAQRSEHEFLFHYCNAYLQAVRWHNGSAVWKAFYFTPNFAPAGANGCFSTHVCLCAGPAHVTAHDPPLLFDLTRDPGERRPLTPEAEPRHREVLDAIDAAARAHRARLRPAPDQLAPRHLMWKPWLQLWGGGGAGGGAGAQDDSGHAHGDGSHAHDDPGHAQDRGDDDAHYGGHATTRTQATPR

STS [8] = molecular target: T1, STS; details: in vivo
Description: as §1, §2

STS [9] = molecular target: T1, STS; assay: STS activity in PBMCs (Phase I study, labelled E1-S conversion to E1, LC-MS/MS)
Description: as §1, §2

STS [10] = molecular target: T1, STS; details: cited from earlier work; remark: listed apart in the source
[11] = maximum during the NETA treatment period (values of days 8 to 29)
[12] = daily oral 0.5 or 1 mg/kg for 21 days, end of the treatment

Compound: C[C@]12CC[C@@H]3c4ccc(OS(N)(=O)=O)cc4CC[C@H]3[C@@H]1CC[C@@H]2O [E2MATE, Estradiol-3-o-sulfamate]
Baseline relative change of the DHEA-S / DHEA [%] (STS activity; Day 1): 0%
Baseline relative change of the E1-S / E1 [%] (STS activity; Day 1): 0%
Baseline relative change of the DHEA-S / DHEA [%] (STS activity; Day 8): 133%
Baseline relative change of the E1-S / E1 [%] (STS activity; Day 8): 208%
Baseline relative change of the DHEA-S / DHEA [%] (STS activity; Day 15): 116%
Baseline relative change of the E1-S / E1 [%] (STS activity; Day 15): 282%
Baseline relative change of the DHEA-S / DHEA [%] (STS activity; Day 22): 113%
Baseline relative change of the E1-S / E1 [%] (STS activity; Day 22): 218%
Baseline relative change of the DHEA-S / DHEA [%] (STS activity; Day 29): 148%
Baseline relative change of the E1-S / E1 [%] (STS activity; Day 29): 194%
Baseline relative change of the DHEA-S / DHEA [%] (STS activity; Day 57): 195%
Baseline relative change of the E1-S / E1 [%] (STS activity; Day 57): 218%
Baseline relative change of the DHEA-S / DHEA [%] (STS activity; Day 85): 232%
Baseline relative change of the E1-S / E1 [%] (STS activity; Day 85): 243%
Baseline relative change of the DHEA-S / DHEA [%] (STS activity; Day 113): 175%
Baseline relative change of the E1-S / E1 [%] (STS activity; Day 113): 400%
DHEA-S to DHEA ratios increased (STS activity; [11]): up to 265%
baseline relative mean increases of the E1-S to E1 ratio (STS activity; [11]): up to 282%
mean concentration-time profiles for D4A [1]: No relevant differences
mean concentration-time profiles for T [1]: No relevant differences
E2 concentrations [1]: Normal mean concentration-time profiles
P4 concentrations [1]: Normal mean concentration-time profiles
effect on ovarian size [2]: no apparent effect
AVG [%] (STS [3]): 66.6 (2.7) %
AVG (average effect over time (AUC)) (STS [3]; STS inhibition in endometrium samples): 66.60%
After treatment (STS [3]; STS inhibition in endometrium samples, second row of Table 2): 87.50%
tolerability [4]: well tolerated
STS inhibitor activity (STS [5]): active STS inhibitors
Emax (STS [6]; read-out: Emax (maximal observed effect)): 91%
inhibition at 4 mg (STS [6]; read-out: STS inhibition in endometrium): 91%
lesion weight and size (STS [7]; [12]): decreased
number of lesions (STS [7]; [12]): without a reduction
STS activity inhibition in the uterus or in induced lesions (STS [7]; daily oral dose, highest dose (1 mg/kg) for 21 days): ≤ 36%

effect on ovarian size [2]: no apparent effect
inhibition (STS [8]): 12%
AVG [%] (STS [3]): 14.9 (27.0) %
Emax (STS [6]): 46.7%
average inhibition (STS [9]): 4%
Compound: C#C[C@]1(OC(C)=O)CC[C@H]2[C@@H]3CCC4=CC(=O)CC[C@@H]4[C@H]3CC[C@@]21C [NETA, norethindrone acetate, reference compound]
mean concentration-time profiles for D4A [1]: No relevant differences
mean concentration-time profiles for T [1]: No relevant differences
E2 concentrations [1]: suppressed
P4 concentrations [1]: suppressed

Compound: NS(=O)(=O)Oc1ccc2c3c(c(=O)oc2c1)CCCCC3
blocking STS activity in both eutopic and ectopic tissues (STS [10]): effective

Compound: C[C@]12CC[C@@H]3c4ccc(OS(N)(=O)=O)cc4CC[C@H]3[C@@H]1CCC2=O [EMATE, Estrone-3-o-sulfamate]
STS inhibitor activity (STS [5]): active STS inhibitors
